Laboratory results taken from US9656990B2, “Cathepsin cysteine protease inhibitors” (Merck Sharp & Dohme Corp., priority 2014, dated 2017).

What was measured:
human cathepsin K = human cathepsin K (UniProt P43236, Y175D/V274L, species not given); test: Cathepsin K Assay; format: biochemical; settings: IP from dose response curve; Z-Leu-Arg-AMC substrate, pH 5.5; read-out: hrbCat K (IP (nM))
human cathepsin F = target: T1, human cathepsin F (Homo sapiens, UniProt Q9UBX1); test: Cathepsin F Assay; format: biochemical; settings: IP from dose response curve; Z-Phe-Arg-AMC substrate, pH 5.5; read-out: hCat F (IP (nM))
T1 sequence (Q9UBX1 271-484): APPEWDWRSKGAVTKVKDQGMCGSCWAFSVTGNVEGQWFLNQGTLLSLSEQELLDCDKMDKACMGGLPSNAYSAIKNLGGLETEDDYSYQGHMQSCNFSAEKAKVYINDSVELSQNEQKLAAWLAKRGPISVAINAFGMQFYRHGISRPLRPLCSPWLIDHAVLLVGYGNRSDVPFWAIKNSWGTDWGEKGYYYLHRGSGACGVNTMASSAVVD
Method in brief: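 Human cathepsin F (10 nM) preincubated 15 min at room temperature with compounds in 50 mM MES pH 5.5, 2.5 mM EDTA, 2.5 mM DTT, 10% DMSO. Z-Phe-Arg-AMC (8 μM) added; AMC release read by fluorescence (Ex 360/Em 460 nm) over 20 min, inhibition fit to dose-response model.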

Row | SMILES | IC50 (human cathepsin K) [nM] | IC50 (human cathepsin F) [nM]
1 | CC(=O)N1CC(c2ccc(-c3cn(-c4ccc(F)cc4)nc3[C@@H]3CCCC[C@H]3C(=O)NC3(C#N)CC3)cc2)C1 [Example 134, (1R,2R)-2-(4-(4-(1-acetylazetidin-3-yl)phenyl)-1-(4-fluorophenyl)-1H-pyrazol-3-yl)-N-(1-cyanocyclopropyl)cyclohex-anecarboxamide] | 1.57 | 210
2 | CNC(=O)N1CC(c2ccc(-c3cn(-c4ccc(F)cc4)nc3[C@@H]3CCCC[C@H]3C(=O)NC3(C#N)CC3)cc2)C1 [Example 135, 3-(4-(3-((1R,2R)-2-((1-cyanocyclopropyl)carbamoyl)cyclohexyl)-1-(4-fluorophenyl)-1H-pyrazol-4-yl)phenyl)-N-methylazetidine-1-carboxamide] | 0.71 | 64
3 | N#CC1(NC(=O)[C@@H]2CCCC[C@H]2c2nn(-c3ccc(F)cc3)cc2-c2ccc(C3CN(C(=O)NCC(F)(F)F)C3)cc2)CC1 [Example 136, 3-(4-(3-((1R,2R)-2-((1-cyanocyclopropyl)carbamoyl)cyclohexyl)-1-(4-fluorophenyl)-1H-pyrazol-4-yl)phenyl)-N-(2,2,2-trifluoroethyl)azetidine-1-carboxamide] | 0.97 | 83
4 | N#CC1(NC(=O)[C@@H]2CCCC[C@H]2c2nn(-c3ccc4[nH]ccc4c3)cc2-c2ccc(N3CCS(=O)(=O)CC3)cc2)CC1 [Example 137, (1R,2R)-N-(1-cyanocyclopropyl)-2-(4-(4-(1,1-dioxidothiomorpholino)phen-yl)-1-(1H-indol-5-yl)-1H-pyrazol-3-yl)cyclohexanecarboxamide] | 8.43 | 2830
5 | CCN=S1(=O)CCN(c2ccc(-c3cn(-c4ccc(F)cc4)nc3[C@@H]3CCCC[C@H]3C(=O)NC3(C#N)CC3)cc2)CC1 [Example 138, (1R,2R)-N-(1-cyanocyclopropyl)-2-(4-(4-(1-(ethylimino)-1-oxidothiomorpholino)phenyl)-1-(4-fluorophenyl)-1H-pyrazol-3-yl)cyclohexanecarboxamide] | 1.62 | 725
6 | Cc1c(-c2ccc(N3CCS(=O)(=O)CC3)cc2)c([C@@H]2CCCC[C@H]2C(=O)NC2(C#N)CC2)nn1-c1ccc(F)cc1 [Example 139, (1R,2R)-N-(1-cyanocyclopropyl)-2-(4-(4-(1,1-dioxidothiomorpholino)phen-yl)-1-(4-fluorophenyl)-5-methyl-1H-pyrazol-3-yl)cyclohexanecarboxamide] | 7.48 | 649
7 | CC(C)N=S1(=O)CCN(c2ccc(-c3cn(-c4ccc(F)cc4)nc3[C@@H]3CCCC[C@H]3C(=O)NC3(C#N)CC3)cc2)CC1 [Example 140, (1R,2R)-N-(1-cyanocyclopropyl)-2-(1-(4-fluorophenyl)-4-(4-(1-(isopropylimino)-1-oxidothiomorpholino)phenyl)-1H-pyrazol-3-yl)cyclohexanecarboxamide] | 1.29 | 782
8 | N#CC1(NC(=O)[C@@H]2CCCC[C@H]2c2nn(-c3ccc(F)cc3)cc2-c2ccc(N3CCS(=O)(=NCC(F)(F)F)CC3)cc2)CC1 [Example 141, (1R,2R)-N-(1-cyanocyclopropyl)-2-(1-(4-fluorophenyl)-4-(4-(1-oxido-1-((2,2,2-trifluoroethyl)imino)thio-morpholino)phenyl)-1H-pyrazol-3-yl)cyclohexanecarboxamide] | 2.1 | 816
9 | N#CC1(NC(=O)[C@@H]2CCCC[C@H]2c2nn(-c3ccccn3)cc2-c2ccc(N3CCS(=O)(=O)CC3)cc2)CC1 [Example 142, (1R,2R)-N-(1-cyanocyclopropyl)-2-(4-(4-(1,1-dioxidothiomorpholino)phen-yl)-1-(pyridin-2-yl)-1H-pyrazol-3-yl)cyclohexanecarboxamide] | 0.52 | 232
10 | N#CC1(NC(=O)[C@@H]2CCCC[C@H]2c2nn(-c3ccc(C(F)(F)F)cn3)cc2-c2ccc(N3CCS(=O)(=O)CC3)cc2)CC1 [Example 143, (1R,2R)-N-(1-cyanocyclopropyl)-2-(4-(4-(1,1-dioxidothiomorpholino)phen-yl)-1-(5-(trifluoromethyl)pyridin-2-yl)-1H-pyrazol-3-yl)cyclohexanecarboxamide] | 1.17 | 395
11 | N#CC1(NC(=O)[C@@H]2CCCC[C@H]2c2nn(-c3ncccc3F)cc2-c2ccc(N3CCS(=O)(=O)CC3)cc2)CC1 [Example 144, (1R,2R)-N-(1-cyanocyclopropyl)-2-(4-(4-(1,1-dioxidothiomorpholino)phen-yl)-1-(3-fluoropyridin-2-yl)-1H-pyrazol-3-yl)cyclohexanecarboxamide] | 5.59 | 3060
12 | N#CC1(NC(=O)[C@@H]2CCCC[C@H]2c2nn(-c3ccc(F)cn3)cc2-c2ccc(N3CCS(=O)(=O)CC3)cc2)CC1 [Example 145, (1R,2R)-N-(1-cyanocyclopropyl)-2-(4-(4-(1,1-dioxidothiomorpholino)phen-yl)-1-(5-fluoropyridin-2-yl)-1H-pyrazol-3-yl)cyclohexanecarboxamide] | 1.24 | 481
13 | N#CC1(NC(=O)[C@@H]2CCCC[C@H]2c2nn(-c3ccc(Cl)cn3)cc2-c2ccc(N3CCS(=O)(=O)CC3)cc2)CC1 [Example 146, (1R,2R)-2-(1-(5-chloropyridin-2-yl)-4-(4-(1,1-dioxidothiomorpholino)phen-yl)-1H-pyrazol-3-yl)-N-(1-cyanocyclopropyl)cyclohex-anecarboxamide] | 1.15 | 272
14 | N#CC1(NC(=O)[C@@H]2CCCC[C@H]2c2nn(-c3ncc(F)cc3Cl)cc2-c2ccc(N3CCS(=O)(=O)CC3)cc2)CC1 [Example 147, (1R,2R)-2-(1-(3-chloro-5-fluoropyridin-2-yl)-4-(4-(1,1-dioxidothiomorpholino)phen-yl)-1H-pyrazol-3-yl)-N-(1-cyanocyclopropyl)cyclohex-anecarboxamide] | 3.26 | 1190
15 | N#CC1(NC(=O)[C@@H]2CCCC[C@H]2c2nn(-c3ncc(F)cc3F)cc2-c2ccc(N3CCS(=O)(=O)CC3)cc2)CC1 [Example 148, (1R,2R)-N-(1-cyanocyclopropyl)-2-(1-(3,5-difluoropyridin-2-yl)-4-(4-(1,1-dioxidothiomorpholino)phen-yl)-1H-pyrazol-3-yl)cyclohexanecarboxamide] | 1.01 | 502
16 | CN=S1(=O)CCN(c2ccc(-c3cn(-c4ccc(F)cn4)nc3[C@@H]3CCCC[C@H]3C(=O)NC3(C#N)CC3)cc2)CC1 [Example 156, (1R,2R)-N-(1-cyanocyclopropyl)-2-(1-(5-fluoropyridin-2-yl)-4-(4-(1-(methylimino)-1-oxidothiomorpholino)phenyl)-1H-pyrazol-3-yl)cyclohexanecarboxamide] | 1.47 | 945
17 | Cc1c(-c2ccc(N3CCS(=O)(=O)CC3)cc2)c([C@@H]2CCCC[C@H]2C(=O)NC2(C#N)CC2)nn1-c1ccc(F)cn1 [Example 157, (1R,2R)-N-(1-cyanocyclopropyl)-2-(4-(4-(1,1-dioxidothiomorpholino)phen-yl)-1-(5-fluoropyridin-2-yl)-5-methyl-1H-pyrazol-3-yl)cyclohexanecarboxamide] | 4.26 | 2980
18 | CN=S1(=O)CCN(c2ccc(-c3cn(-c4ccc(F)cn4)nc3[C@@H]3CC[C@H](F)C[C@H]3C(=O)NC3(C#N)CC3)cc2)CC1 [Example 159, (1R,2R,5S)-N-(1-cyanocyclopropyl)-5-fluoro-2-(1-(5-fluoropyridin-2-yl)-4-(4-(1-(methylimino)-1-oxidothiomorpholino)phenyl)-1H-pyrazol-3-yl)cyclohexanecarboxamide] | 3.22 | 1410
19 | N#CC1(NC(=O)[C@@H]2CCCC[C@H]2c2nn(-c3cccnn3)cc2-c2ccc(N3CCS(=O)(=O)CC3)cc2)CC1 [Example 161, (1R,2R)-N-(1-cyanocyclopropyl)-2-(4-(4-(1,1-dioxidothiomorpholino)phen-yl)-1-(pyridazin-3-yl)-1H-pyrazol-3-yl)cyclohexanecarboxamide] | 1.61 | 751
20 | COc1ccc(-n2cc(-c3ccc(N4CCS(=O)(=O)CC4)cc3)c([C@@H]3CCCC[C@H]3C(=O)NC3(C#N)CC3)n2)nn1 [Example 162, (1R,2R)-N-(1-cyanocyclopropyl)-2-(4-(4-(1,1-dioxidothiomorpholino)phen-yl)-1-(6-methoxypyridazin-3-yl)-1H-pyrazol-3-yl)cyclohexanecarboxamide] | 0.84 | 654
21 | N#CC1(NC(=O)[C@@H]2CCCC[C@H]2c2nn(-c3ccncc3)cc2-c2ccc(N3CCS(=O)(=O)CC3)cc2)CC1 [Example 163, (1R,2R)-N-(1-cyanocyclopropyl)-2-(4-(4-(1,1-dioxidothiomorpholino)phen-yl)-1-(pyridin-4-yl)-1H-pyrazol-3-yl)cyclohexanecarboxamide] | 0.32 | 237
22 | N#CC1(NC(=O)[C@@H]2CCCC[C@H]2c2nn(-c3cccnc3)cc2-c2ccc(N3CCS(=O)(=O)CC3)cc2)CC1 [Example 164, (1R,2R)-N-(1-cyanocyclopropyl)-2-(4-(4-(1,1-dioxidothiomorpholino)phen-yl)-1-(pyridin-3-yl)-1H-pyrazol-3-yl)cyclohexanecarboxamide] | 0.48 | 697
23 | N#CC1(NC(=O)[C@@H]2CCCC[C@H]2c2nn(-c3cncc(F)c3)cc2-c2ccc(N3CCS(=O)(=O)CC3)cc2)CC1 [Example 165, (1R,2R)-N-(1-cyanocyclopropyl)-2-(4-(4-(1,1-dioxidothiomorpholino)phen-yl)-1-(5-fluoropyridin-3-yl)-1H-pyrazol-3-yl)cyclohexanecarboxamide] | 0.9 | 319
